In patent EP4345091A1, “BENZOIC ACID DERIVATIVES, METHODS AND USES THEREOF” (priority 2022, dated 2024):
Converted amounts (≈) assume the structure as drawn. Read-outs that look alike come from different tables or passages of the source.

What was measured:
[1] = pH 7.4
Experimental: (§3) Chemical hydrolysis was evaluated in phosphate buffer at physiological pH (7.4) to determine its influence in enzymatic studies.
(§4) 1176 µL pH 7.4 phosphate buffer or pH 5.9 phosphate buffer, 18 µL ACN and 6 µL of a 10-1 M stock solution of the prodrug in ACN were mixed in a 2mL vial. The solution was incubated at 37 °C and 50 µL aliquots were removed, mixed with 450 µL of ACN: H2O 1:1. The solution was analysed by HPLC, the remaining substrate and the correspondent acid were both measured.
(§5) The eluant was a mixture of acetonitrile (60%/70%) and aqueous phosphate buffer with 5% of KH2PO4/H3PO4 0.025M (40%/30%). The flow rate was always 1 mL/1 min and wavelength was set at 230 nm. All quantifications were evaluated using calibration curves from stock solutions.
(§6) The initial substrate concentration was 5 x 10^-4 M in all stability assays. All incubations were carried out at pH 7.4 and 37 °C under agitation using the phosphate buffer described above as diluting agent. […] Acetonitrile (2%) was used in all studies to ensure adequate solubilization of the substrates.

[2] = Cytotoxicity assay in THP-1 cells; format: cell-based, human; conditions: human; THP-1 cells; lethal concentration for 50% of the cell population; read-out: LC50 (the source's name)
Excerpt: (§1) Cytotoxicity results were obtained through lethal concentration for 50% of the cell population, LC50. Table 6. Results obtained from cytotoxicity assays for the esters, represented by LD50 in µg/mL and comparison with MIC values, in µg/mL with toxicity/activity (T/A) index.
(§2) The T/A index quantitatively is the ratio between the lethal concentration (LC50) given by the minimum inhibitory concentration (MIC).

[3] = tested on: human monocytic cell line THP-1 (ATCC56 TIB202); experiment: Cytotoxicity assay in THP-1 cells; format: cell-based; conditions: toxicity/activity index: ratio LC50 (THP-1) / MIC (M. tuberculosis H37Rv)
Excerpt: as §1, §2

[4] = tested on: Mycobacterium smegmatis homogenate; experiment: Stability in Mycobacterium smegmatis homogenate (enzymatic hydrolysis); conditions: Mycobacterium smegmatis homogenate, 37°C
M. smegmatis mc2 155 = experiment: MIC and MBC against M. smegmatis; format: cell-based
[5] = tested on: Mycobacterium tuberculosis H37Rv; experiment: MIC and MBC by broth microdilution against M. tuberculosis H37Rv; format: cell-based, Mycobacterium tuberculosis H37Rv (ATCC 27294)
M. bovis BCG = experiment: microbe, parasite or virus in culture; format: cell-based; conditions: Mycobacterium tuberculosis variant bovis BCG
M. avium DSM 44156 = experiment: MIC and MBC against M. avium; format: cell-based
[6] = tested on: Mycobacterium Bovis BCG infecting human macrophages THP-1; format: cell-based; conditions: compound concentration 2 µg/ml
[7] = Stability in Mycobacterium smegmatis homogenate (enzymatic hydrolysis); conditions: mycobacterium smegmatis homogenate, pH 7.4
[8] = Stability in human plasma (enzymatic hydrolysis)
Experimental: The studies of stability in human plasma were performed in human plasma diluted to 80% with phosphate buffer pH 7.4 of total concentration 0.05 M and ionic strength 0.15 M at 37°C. […] Study of enzymatic hydrolysis. […] Initial substrate concentration (ester) - 5×10^-4M with 2% ACN.
Pooled human plasma (960 µL), pH 7.4 phosphate buffered saline (216 µL), 18 µL ACN and 6 µL of a 10-1 M stock solution of the prodrug in ACN were mixed in a 2mL vial. The suspensions were incubated at 37 °C and 50 µL aliquots were removed, mixed with 450 µL of ACN: ZnSO4 1% 1:1 and centrifuged. The supernatant was removed and analysed by HPLC, the remaining substrate and the correspondent acid measured.
Two HPLC systems were used. The buffer and plasma stability studies were performed in an HPLC system with a photodiode detector L-3000 Photo Diode Array Detector, Merck-Hitachi L-6000 pump, Merck-Hitachi D-2500 integrator, and Merck RP-8 column. […] The eluant was a mixture of acetonitrile (60%/70%) and aqueous phosphate buffer with 5% of KH2PO4/H3PO4 0.025M (40%/30%). The flow rate was always 1 mL/1 min and wavelength was set at 230 nm. All quantifications were evaluated using calibration curves from stock solutions.
The initial substrate concentration was 5 x 10^-4 M in all stability assays. All incubations were carried out at pH 7.4 and 37 °C under agitation using the phosphate buffer described above as diluting agent. […] Acetonitrile (2%) was used in all studies to ensure adequate solubilization of the substrates. The benzoates were added from 10 to 1M acetonitrile stock solutions. After incubation, aliquots of 50 µL were taken into vials containing 450 µL of a 1:1 solution of 1% zinc sulfate and acetonitrile, mixed in a vortex and centrifuged for 10 min at 15,000 rpm. The supernatant was then injected into the HPLC and analysed for quantification of benzoic acid and remaining benzoate. All quantifications were performed using calibration curves.

[9] = Chemical stability in phosphate buffer pH 7.4
Experimental: as §3, §4, §5, §6

[10] = Mycolicibacterium smegmatis, MC2155
[11] = Mycobacterium tuberculosis, H37RV, M. tuberculosis H37Rv, Table 3
[12] = Mycobacterium tuberculosis, H37RV, M. tuberculosis H37Rv, Table 4
[13] = Mycobacterium tuberculosis, H37RV, M. tuberculosis H37Rv, Tables 3, 6 and 7

| Compound | CC50 [2] [µg/mL] | T/A [3] | Degradation (%) 24h [4] [%] | Degradation (%) 48h [4] [%] | MBC (M. smegmatis mc2 155; [10]) [µg/mL] | MIC (M. smegmatis mc2 155; [10]) [µg/mL] | MBC [5, 11] [µg/mL] | MBC [5, 12] [µg/mL] | MIC [5, 12] [µg/mL] | MIC [5, 13] [µg/mL] | MBC (M. bovis BCG) [µg/mL] | MIC (M. bovis BCG) [µg/mL] | MBC (M. avium DSM 44156; Mycobacterium avium, DSM44156) [µg/mL] | MIC (M. avium DSM 44156; Mycobacterium avium, DSM44156) [µg/mL] | CFU x10^4 ([6]; Time 0 days) [CFUs per mL] | CFU x10^4 ([6]; Time 1 day) [CFUs per mL] | CFU x10^4 ([6]; Time 3 days) [CFUs per mL] | CFU x10^4 ([6]; Time 7 days) [CFUs per mL] | also measured |
| --- | --- | --- | --- | --- | --- | --- | --- | --- | --- | --- | --- | --- | --- | --- | --- | --- | --- | --- | --- |
| CCCCCCCCNC(=O)c1cc([N+](=O)[O-])cc([N+](=O)[O-])c1 [Compound 7c, N-octyl-3.5-dinitrobenzamide] | 97 (≈ 300 µM) | 6063 | 3 | 5 | 4 (≈ 12.4 µM) | 0.25 (≈ 0.773 µM) | 0.016 (≈ 0.0495 µM) | ≤ 0.062 | ≤ 0.062 | 0.016 (≈ 0.0495 µM) | 0.015 (≈ 0.0464 µM) | 0.015 (≈ 0.0464 µM) | 64 (≈ 198 µM) | 32 (≈ 99 µM) |  |  |  |  | Degradation (%) 24h [1]: 0%; Degradation (%) 48h [1]: 0%; Degradation (%) 72h [1]: 0%; Degradation (%) 168h [1]: 0%; Degradation (%) 332h [1]: 0% |
| CCCCCCNC(=O)c1cc([N+](=O)[O-])cc([N+](=O)[O-])c1 [Compound 7b, N-hexyl-3.5-dinitrobenzamide] | 361 (≈ 1220 µM) | 11645 | 18 | 33 | 1 (≈ 3.39 µM) | 1 (≈ 3.39 µM) | 0.031 (≈ 0.105 µM) | ≤ 0.5 | ≤ 0.5 | 0.031 (≈ 0.105 µM) | 0.25 (≈ 0.847 µM) | 0.25 (≈ 0.847 µM) |  |  | 9.2 | 4.58 | 0.40 | 0.05 | half-life at 500 µM [7]: 82.5 ± 1.4 h |
| CCCCCCCCCCNC(=O)c1cc([N+](=O)[O-])cc([N+](=O)[O-])c1 [Compound 7d, N-decyl-3.5-dinitrobenzamide] | 53 (≈ 151 µM) | 841 | 1 | 2 | 1 (≈ 2.85 µM) | 1 (≈ 2.85 µM) | 0.063 (≈ 0.179 µM) | ≤ 0.5 | ≤ 0.5 | 0.063 (≈ 0.179 µM) | 0.062 (≈ 0.176 µM) | 0.062 (≈ 0.176 µM) |  |  | 9.2 | 7.33 | 0.32 | 0.03 |  |
| CCCCCCCCCCCCNC(=O)c1cc([N+](=O)[O-])cc([N+](=O)[O-])c1 [Compound 7e, N-dodecyl-3.5-dinitrobenzamide] | 72 (≈ 190 µM) | 144 | 1 | 2 | > 2.66 | 0.66 (≈ 1.74 µM) | 0.5 (≈ 1.32 µM) | 0.5 (≈ 1.32 µM) | 0.5 (≈ 1.32 µM) | 0.5 (≈ 1.32 µM) | 0.166 (≈ 0.437 µM) | 0.083 (≈ 0.219 µM) | > 341 | > 341 |  |  |  |  | Degradation (%) 24h ([8]; 24h): 0%; Degradation (%) 48h ([8]; 48h): 0%; Degradation (%) 72h ([8]; 72h): 0%; Degradation (%) 24h ([9]; 24h): 0%; Degradation (%) 48h ([9]; 48h): 0%; Degradation (%) 72h ([9]; 72h): 0%; Degradation (%) 168h ([9]; 168h): 0%; Degradation (%) 332h ([9]; 332h): 0% |
| N-butyl-3.5-dinitrobenzamide [Compound 7a] |  |  |  |  |  |  |  |  |  |  |  |  |  |  |  |  |  |  | MBC (M. smegmatis mc2 155; M. smegmatis mc2 155): 4 µg/mL; MIC (M. smegmatis mc2 155; M. smegmatis mc2 155): 4 µg/mL; MBC [5]: 0.5 µg/mL; MIC [5]: 0.5 µg/mL; MBC (M. avium DSM 44156; M. avium DSM 44156): 512 µg/mL; MIC (M. avium DSM 44156; M. avium DSM 44156): 64 µg/mL |
| CCCCCCCCCCCCCCNC(=O)c1cc([N+](=O)[O-])cc([N+](=O)[O-])c1 [Compound 7f, N-tetradecyl-3.5-dinitrobenzamide] | 330 (≈ 810 µM) | 2640 | 1 | 2 | 4 (≈ 9.82 µM) | 1 (≈ 2.45 µM) | 0.25 (≈ 0.613 µM) | ≤ 0.5 | ≤ 0.5 | 0.125 (≈ 0.307 µM) | 0.25 (≈ 0.613 µM) | 0.25 (≈ 0.613 µM) |  |  | 9.2 | 14.16 | 10.08 | 13.91 |  |
